From patent publication US20240226122A9, “TREATMENT OF GASTROINTESTINAL DISORDERS” (Greenspace Labs, Inc., priority 2022, published 2024)

Assay: Micro evaporation screening, re-dissolution of API:polymer matrices
Format: physicochemical
Procedure: Micro evaporation screening experiments were done by dissolving API and polymer in an organic solvent and mixed in centrifuge tubes. Then the solvent was removed using vacuum concentrator. Samples were then mixed for 4, 10, and 30 minutes using phosphate buffer pH 6.8 as a reconstitution medium. For Eudragit S100 phosphate buffer pH 7.4 was used as a reconstitution media, citrate buffer pH 4.5 was used for Eudragit EPO. Phosphate buffer pH 6.8 was used for the rest of the polymers. Samples were mixed for 4, 10, and 30 minutes. Analysis was done by UV spectrometry to measure re-dissolution behavior of polymer system.
Several organic solvents were screened for the micro evaporation screening trials including acetone, tetrahydrofuran, dichloromethane, methanol, and ethanol.
Round 1 matrix Screening • 30:70 API:Soluplus • 30:70 API:Eudragit EPO • 30:70 API:Kollidon VA 64 • 25:75 API:PVP K30 • 25:75 API:Eudragit S100
Round 2 matrix screening with surfactants
Surfactants/solubilizers (5-10%) were screened for enhancement of spring-parachute effect, which is a strategy used in the pharmaceutical formulation to improve the solubility and bioavailability of poorly-soluble drugs: • PEG 1500 • Poloxamer 407 (HLB˜18) • SLS (HLB˜40) • Kolliphor RH40 (HLB−15) • TPGS (HLB˜13)
CBD Miniaturized Screening Experiment—Micro Evaporation Matrices screened: • API:Soluplus (30:70) • API:Eudragit EPO (30:70) • API:PVP K30 (25:75) • API:Eudragit S100 (25:75) • API:Kollidon VA64 (10:90) • API+Kollidon VA64+PEG1500 (10:85:5) • API+Kollidon VA64+SLS (10:85:5) • API+Kollidon VA64+Kolliphor RH40 (10:85:5) • API+Kollidon VA64+TPGS (10:85:5) • API+Kollidon VA64+Poloxamer 407 (10:85:5)
CBDA Miniaturized Screening Experiment—Micro Evaporation Matrices screened: • API:Eudragit EPO (30:70) • API:PVP K30 (30:70) • API:Soluplus (30:70) • API:Eudragit S100 (30:70) • API:Kollidon VA64 (25:75) • API+Kollidon VA64+PEG1500 (25:70:5) • API+Kollidon VA64+SLS (25:70:5) • API+Kollidon VA64+Kolliphor RH40 (25:70:5) • API+Kollidon VA64+TPGS (25:70:5) • API+Kollidon VA64+Poloxamer 407 (25:70:5)

In the case of `C=C(C)[C@@H]1CCC(C)=C[C@H]1c1c(O)cc(CCCCC)cc1O` [CBD, cannabidiol, reference compound], the “re-dissolution of API from matrix” value (CBD matrix with Kollidon VA64, at 10 min, 1 mg API per tube) was “complete dissolution”.
Work on `CCCCCc1cc(O)c(C/C=C(\C)CCC=C(C)C)c(O)c1C(=O)O` [CBGA, cannabigerolic acid] yielded a dissolution concentration (CBGA matrix with Kollidon VA64 with addition of SLS and Poloxamer 407) of 520 to 550 µg/mL.
For `C=C(C)[C@@H]1CCC(C)=C[C@H]1c1c(O)cc(CCCCC)c(C(=O)O)c1O` [CBDA, cannabidiolic acid], the dissolution concentration (CBDA matrix with Kollidon VA64 with addition of SLS, Kolliphor RH40, 10 and 30 min timepoints) was 490 to 500 µg/mL.
